Data as given in patent US8030306B2, “Azabicyclic heterocycles as cannabinoid receptor modulators” (Bristol-Myers Squibb Company, priority 2006, dated 2011).
Values after ≈ are worked out from the molar mass of the structure shown.

Experiments:
recombinant human CB-1 = molecular target: T1, recombinant human CB-1 (Homo sapiens, UniProt P21554); experiment: Cannabinoid receptor binding assay (radioligand 3H-CP-55,940, CHO-CB-1 membranes); conditions: membranes of CHO cells over-expressing recombinant human CB-1, 2 nM 3H-CP-55,940, read-out: CB1 Ki
T1 construct: expressed in transfected cells; host or cells: CHO cells (CHO-CB-1), membrane preparation
T1 sequence (P21554 whole entry): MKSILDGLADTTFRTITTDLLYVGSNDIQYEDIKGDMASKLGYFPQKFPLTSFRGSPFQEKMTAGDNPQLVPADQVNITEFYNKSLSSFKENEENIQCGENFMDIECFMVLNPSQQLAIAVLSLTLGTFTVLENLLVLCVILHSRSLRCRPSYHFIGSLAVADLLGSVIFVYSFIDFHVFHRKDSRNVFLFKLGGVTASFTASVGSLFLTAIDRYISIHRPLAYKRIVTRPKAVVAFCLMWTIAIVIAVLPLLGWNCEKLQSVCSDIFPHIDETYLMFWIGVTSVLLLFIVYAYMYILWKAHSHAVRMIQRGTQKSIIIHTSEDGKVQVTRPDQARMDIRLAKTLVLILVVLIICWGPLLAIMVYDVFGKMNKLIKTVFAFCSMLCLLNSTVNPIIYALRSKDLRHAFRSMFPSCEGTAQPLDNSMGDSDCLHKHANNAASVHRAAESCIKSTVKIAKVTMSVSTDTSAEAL
Procedure: Radioligand binding studies were conducted in membranes prepared from Chinese Hamster Ovary (CHO) cells that over-express recombinant human CB-1 (CHO-CB-1 cells). Total assay volume for the binding studies was 100 μl. 5 μg of membranes were brought up to a final volume of 95 μl with Binding Buffer (25 mM HEPES, 150 mM NaCl, 2.5 mM CaCl2, 1 mM MgCl2, 0.25% BSA). The diluted membranes were preincubated with a compound or DMSO vehicle. The binding reaction was initiated by the addition of 2 nM final ^3H-CP-55,940 (120 Ci/mmol) and proceeded for 2.5 hours at room temperature. The binding reaction was terminated by transferring the reaction to GF/B 96 well plates (presoaked with 0.3% polyethylenimine) using a Packard Cell Harvester. The filter was washed with 0.25 ×PBS, 30 μl MicroScint was added per well, and the bound radiolabel was quantitated by scintillation counting on a Packard TopCount Scintillation Counter. The CB-2 radioligand binding assay was conducted identically except that the membranes from CHO-CB-2 cells were used.

[1] = Canine half-life assay (IV pharmacokinetics); assay type: in vivo; conditions: dog, plasma; male beagle dogs, IV 1 mg/kg; unit not given in table (text gives hrs)
Procedure: Functional canine half-life of test compounds was determined by methods […] to one of ordinary skill in the art. For example, pharmacokinetic parameters were determined in male beagle dogs (weight of 12.4, 13.2 and 8.9 kg). The intravenous (“IV”) solution dose studies were conducted in a crossover design (n=3). Animals with vascular access ports, chronically implanted in the femoral vein, were used for administration of the dose. The animals had free access to water and were conscious and unrestrained throughout the study. In the IV study, drug was infused at a dose of 1 mg/kg (1 mL/kg) in 50% PEG-400, 10% ethanol and 40% water over 10 minutes. Serial blood samples were collected from the jugular vein at 0.167, 0.25, 0.5, 0.75, 1, 2, 4, 6, 8, 24, 48 and 72 hours post-dose. Plasma was prepared immediately, and the samples were frozen on dry ice and stored at −20° C. until analysis. All samples were analyzed for the concentration of the parent drug by LC-MS/MS analysis.
The pharmacokinetic parameters were calculated by Non-Compartmental Analysis using the […]™ software program (version 4.2, InnaPhase Co., Philadelphia, Pa.). The AUCO-Tlast and AUCtot values were calculated using the trapezoidal summations. The elimination half-life (T1/2) was calculated from the terminal, linear portion of the plasma concentration-time data curve. The total clearance (CLplasma), mean residence time (MRT), and the steady state volume of distribution (Vss) were also calculated after intravenous administration. The total blood clearance (CLblood) was calculated by using the total plasma clearance and the blood to plasma concentration ratio. All results are expressed as mean±SD, unless specified otherwise.

[2] = Thermodynamic equilibrium aqueous solubility assay; assay type: physicochemical; conditions: thermodynamic from solid, room temperature, default 50 mM pH 6.5 potassium phosphate buffer
Procedure: • Assay Name: Thermodynamic Equilibrium Aqueous Solubility Assay • Description: The purpose of this assay is to provide a medium throughput estimation of the thermodynamic equilibrium aqueous solubility of compounds at room temperature. Solvent system default is 50 mM pH 6.5 potassium phosphate buffer. Detailed Protocol:
Standards Preparation—The calibration standard is prepared by accurately weighing 0.5-0.7 mg of sample in 5 ml of methanol. […] A serial dilution is performed on the standard solution.
The final saturated solution is prepared by adding 1.0 ml of the appropriate aqueous solvent to the remaining portion of material (1 dram submission vial). The solution is sonicated and vortexed for ˜30 seconds. The sample solution is placed on an orbiter that continually agitates the sample solutions for 15-24 hours at room temperature. The final saturated solution is then transferred to a 1.5 ml eppendorf tube and centrifuged for ˜2 min. at 10000 rpms. The supernatant from the saturated solution is transferred to a glass HPLC-suitable vial without filtering since the […] is insufficient to saturate the syringe filter. This sample preparation procedure nullifies the effects of non-specific binding to the filtering apparatus.
The standards and sample are analyzed by HPLC using either UV/Vis diode array or variable wavelength detection. Typical quantitation wavelengths are 210 or 254 nm; detection wavelength can be individually customized to optimize sensitivity. In addition to UV detection, mass spectrometry detection is recommended if available in order to confirm the identity of the HPLC-UV peak of interest.
Dilutions of aqueous test solutions are performed if HPLC-UV peak is beyond the linear portion of the standard calibration curve. Typical dilutions include 100 ul/900 ul (×10) or 500 ul/500 ul (2 ×), as required.

[3] = 16 week trial period, Phase IIb; cited from earlier work

Ki (recombinant human CB-1)	half-life [1]	solubility [2]	Structure (SMILES)	body weight in human subjects [3]
10 nM	–	–	Cc1nc(C(F)(F)F)ccc1Cn1c(=O)c(-c2ccc(C#N)cc2)c(-c2ccc(Cl)cc2)c2nnc([C@H](C)O)n21 [Example 5, (S)-4-(8-(4-chlorophenyl)-3-(1-hydroxyethyl)-5-((2-methyl-6-(trifluoromethyl)pyridin-3-yl)methyl)-6-oxo-5,6-dihydro-[1,2,4]triazolo[4,3-b]pyridazin-7-yl)benzonitrile]	–
5 nM	23 h	6 µg/mL (≈ 10.6 µM)	COCc1nnc2c(-c3ccc(Cl)cc3)c(-c3ccc(C#N)cc3)c(=O)n(Cc3ccc(C(F)(F)F)nc3C)n12 [Example 2, 4-(8-(4-chlorophenyl)-3-(methoxymethyl)-5-((2-methyl-6-(trifluoromethyl)pyridin-3-yl)methyl)-6-oxo-5,6-dihydro-[1,2,4]triazolo[4,3-b]pyridazin-7-yl)benzonitrile]	–
8 nM	–	101 µg/mL (≈ 192 µM)	Cc1nc(C(F)(F)F)ccc1Cn1c(=O)c(-c2ccccc2)c(-c2ccc(Cl)cc2)c2nnc(CN)n21 [Example 12]	–
15 nM	–	10 µg/mL (≈ 17.7 µM)	Cc1nc(C(F)(F)F)ccc1Cn1c(=O)c(-c2ccc(C#N)cc2)c(-c2ccc(Cl)cc2)c2nnc([C@@H](C)O)n21 [Example 4, (R)-4-(8-(4-chlorophenyl)-3-(1-hydroxyethyl)-5-((2-methyl-6-(trifluoromethyl)pyridin-3-yl)methyl)-6-oxo-5,6-dihydro-[1,2,4]triazolo[4,3-b]pyridazin-7-yl)benzonitrile]	–
–	–	–	Cc1c(C(=O)NN2CCCCC2)nn(-c2ccc(Cl)cc2Cl)c1-c1ccc(Cl)cc1 [SR-141716]	dose-dependently reduced body weight
27 nM	–	31 µg/mL (≈ 57.4 µM)	Cc1nc(C(F)(F)F)ccc1Cn1c(=O)c(-c2ccccc2)c(-c2ccc(Cl)cc2)c2nnc([C@@H](C)O)n21 [Example 21, (R)-8-(4-chlorophenyl)-3-(1-hydroxyethyl)-5-((2-methyl-6-(trifluoromethyl)pyridin-3-yl)methyl)-7-phenyl-[1,2,4]triazolo[4,3-b]pyridazin-6(5H)-one]	–
14 nM	–	7 µg/mL (≈ 12.6 µM)	Cc1ccc(-c2c(-c3ccc(Cl)cc3)c(=O)n(Cc3ccc(C(F)(F)F)nc3C)n3c([C@H](C)O)nnc23)cc1 [Example 18, (S)-7-(4-chlorophenyl)-3-(1-hydroxyethyl)-5-((2-methyl-6-(trifluoromethyl)pyridin-3-yl)methyl)-8-p-tolyl-[1,2,4]triazolo[4,3-b]pyridazin-6(5H)-one]	–
6 nM	–	38 µg/mL (≈ 68.7 µM)	Cc1ccc(-c2c(-c3ccc(Cl)cc3)c3nnc([C@H](C)N)n3n(Cc3ccc(C(F)(F)F)nc3C)c2=O)cc1 [Example 16]	–
3 nM	20 h	15 µg/mL (≈ 27.2 µM)	Cc1nc(C(F)(F)F)ccc1Cn1c(=O)c(-c2ccc(C#N)cc2)c(-c2ccc(Cl)cc2)c2nnc(CO)n21 [Example 3, 4-(8-(4-chlorophenyl)-3-(hydroxymethyl)-5-((2-methyl-6-(trifluoromethyl)pyridin-3-yl)methyl)-6-oxo-5,6-dihydro-[1,2,4]triazolo[4,3-b]pyridazin-7-yl)benzonitrile]	–
10 nM	–	25 µg/mL (≈ 46.4 µM)	CNCc1nnc2c(-c3ccc(Cl)cc3)c(-c3ccccc3)c(=O)n(Cc3ccc(C(F)(F)F)nc3C)n12 [Example 14]	–
3 nM	–	20 µg/mL (≈ 37.1 µM)	Cc1ccc(-c2c(-c3ccc(Cl)cc3)c3nnc(CN)n3n(Cc3ccc(C(F)(F)F)nc3C)c2=O)cc1 [Example 13]	–
3 nM	39 h	4 µg/mL (≈ 7.41 µM)	COCc1nnc2c(-c3ccc(Cl)cc3)c(-c3ccccc3)c(=O)n(Cc3ccc(C(F)(F)F)nc3C)n12 [Example 22, 8-(4-chlorophenyl)-3-(methoxymethyl)-5-((2-methyl-6-(trifluoromethyl)pyridin-3-yl)methyl)-7-phenyl-[1,2,4]triazolo[4,3-b]pyridazin-6(5H)-one]	–
5 nM	–	7 µg/mL (≈ 12.6 µM)	Cc1ccc(-c2c(-c3ccc(Cl)cc3)c3nnc([C@H](C)O)n3n(Cc3ccc(C(F)(F)F)nc3C)c2=O)cc1 [Example 19, (S)-8-(4-chlorophenyl)-3-(1-hydroxyethyl)-5-((2-methyl-6-(trifluoromethyl)pyridin-3-yl)methyl)-7-p-tolyl-[1,2,4]triazolo[4,3-b]pyridazin-6(5H)-one]	–
6 nM	–	22 µg/mL (≈ 40.7 µM)	Cc1nc(C(F)(F)F)ccc1Cn1c(=O)c(-c2ccccc2)c(-c2ccc(Cl)cc2)c2nnc([C@H](C)O)n21 [Example 20, (S)-8-(4-chlorophenyl)-3-(1-hydroxyethyl)-5-((2-methyl-6-(trifluoromethyl)pyridin-3-yl)methyl)-7-phenyl-[1,2,4]triazolo[4,3-b]pyridazin-6(5H)-one]	–
20 nM	–	31 µg/mL (≈ 57.5 µM)	Cc1ccc(-c2c(-c3ccc(Cl)cc3)c(=O)n(Cc3ccc(C(F)(F)F)nc3C)n3c(CN)nnc23)cc1 [Example 17]	–
13 nM	–	2 µg/mL (≈ 3.46 µM)	Cc1nc(C(F)(F)F)ccc1Cn1c(=O)c(-c2ccc(C#N)cc2)c(-c2ccc(Cl)cc2)c2nnc(CN(C)C)n21 [Example 10, 4-(8-(4-chlorophenyl)-3-((dimethylamino)methyl)-5-((2-methyl-6-(trifluoromethyl)pyridin-3-yl)methyl)-6-oxo-5,6-dihydro-[1,2,4]triazolo[4,3-b]pyridazin-7-yl)benzonitrile]	–
11 nM	–	–	Cc1nc(C(F)(F)F)ccc1Cn1c(=O)c(-c2ccc(C#N)cc2)c(-c2ccc(Cl)cc2)c2nnc(CN)n21 [Example 11, 4-(3-(aminomethyl)-8-(4-chlorophenyl)-5-((2-methyl-6-(trifluoromethyl)pyridin-3-yl)methyl)-6-oxo-5,6-dihydro-[1,2,4]triazolo[4,3-b]pyridazin-7-yl)benzonitrile]	–

Structure (SMILES)	Ki (recombinant human CB-1)	half-life [1]	solubility [2]	body weight in human subjects [3]
Cc1nc(C(F)(F)F)ccc1Cn1c(=O)c(-c2ccc(Cl)cc2)c(-c2ccc(Cl)cc2)c2nnc(CN)n21 [Example 15]	12 nM	–	16 µg/mL (≈ 28.6 µM)	–
